Paper PMC6548335 (ACS infectious diseases, 2019)
“Also recorded” adds a separate entry of the source.

Columns and labels:
[1] = Hepatic microsomal stability; type: in vitro ADME; conditions: mouse, liver microsomes, pH 7.4
BHK-21 cells = assay: Cytotoxicity assay; type: cell-based, baby hamster; conditions: for CC5: 50% loss of BHK-21 cell viability; for CC50 relative to antiviral IC90: BHK-21 CC50 vs DENV2 IC90
DENV2 NGC = assay: microbe, parasite or virus in culture; type: cell-based, dengue virus 2 (BHK-21 cells); conditions: Dengue virus, DENV2, BHK-21, read-out: IC90 (μM) [DENV2 NGC)
[2] = test system: malate dehydrogenase (MDH); assay: Malate dehydrogenase; type: biochemical; conditions: presence and absence of Triton X-100
[3] = target: soluble, prefusion DENV2 envelope protein (sE2) (Dengue virus type 2, UniProt P14340); assay: Biolayer interferometry binding to sE2; set-up: species or system dengue virus 2
[4] = Pharmacokinetic study in mice; conditions: female, C57BL/6, mouse, intraperitoneal, 20 mg/kg
DENV2 S221 [5] = assay: Viral infectivity assay, mouse-adapted DENV2 S221; conditions: Dengue virus, DENV2, BHK-21, read-out: antiviral IC90, DENV2 S221
DENV2 S221 [6] = assay: Multi-cycle infection, DENV2 S221; conditions: 5 μM, MOI 0.01, supernatants at 48 and 72 hours post-infection
Plasma-protein binding = type: in vitro ADME
[7] = test system: E-mediated membrane fusion of DENV2, strain NGC; conditions: 0, 10, 50 μM compound, pH 5.3, Western blot

Row | SMILES | half-life at 1 μM [1] [min] | IC90 (DENV2 NGC) [µM] | detergent-sensitive (non-specific) inhibition of MDH [2] | other results
1 | CN1CCN(c2ccc(N/N=C(\C#N)C(=O)c3cc4ccccc4o3)cc2C(F)(F)F)CC1 [JBJ-01-162-01, (E)-2-(benzofuran-2-yl)-N-(4-(4-methylpiperazin-1-yl)-3-(trifluoromethyl)phenyl)-2-oxoacetohydrazonoyl cyanide] | 35.1 | – | – | –
2 | CN1CCN(c2cc(N/N=C(\C#N)C(=O)c3cc4ccccc4o3)cc(C(F)(F)F)c2)CC1 [JBJ-01-162-02, (E)-2-(benzofuran-2-yl)-N-(3-(4-methylpiperazin-1-yl)-5-(trifluoromethyl)phenyl)-2-oxoacetohydrazonoyl cyanide] | 73 | 9 ± 2.8 | detergent-sensitive inhibition of malate dehydrogenase comparable to that of 3-110-22 | CC5 (BHK-21 cells): 24.5 ± 7.2 µM
3 | N#C/C(=N\Nc1ccc(N2CCOCC2)c(C(F)(F)F)c1)C(=O)c1cc2ccccc2o1 [JBJ-01-162-03, (E)-2-(benzofuran-2-yl)-N-(4-morpholino-3-(trifluoromethyl)phenyl)-2-oxoacetohydrazonoyl cyanide] | > 120 | 1.6 ± 0.7 | detergent-sensitive inhibition of malate dehydrogenase comparable to that of 3-110-22 | CC5 (BHK-21 cells): 32.5 ± 2.2 µM; CC50 relative to antiviral IC90 (BHK-21 cells): ≥ 20 fold
4 | Cc1cn(-c2cc(N/N=C(\C#N)C(=O)c3cc4ccccc4o3)cc(C(F)(F)F)c2)cn1 [JBJ-01-162-04, (E)-2-(benzofuran-2-yl)-N-(3-(4-methyl-1H-imidazol-1-yl)-5-(trifluoromethyl)phenyl)-2-oxoacetohydrazonoyl cyanide] | 64.8 | 1.5 ± 0.4 | lacks this non-specific activity; also recorded: Slight inhibition of MDH | Kd [3]: 1400 ± 500 nM; concentration at 4 h ([4]; liver): 37.2 µM; concentration at 12 h ([4]; liver): 13 µM; concentration at 4 h ([4]; plasma): 75.8 µM; concentration at 12 h ([4]; plasma): 2.9 µM; IC90 (DENV2 S221 [5]): 1400 ± 600 nM; CC50 relative to antiviral IC90 (BHK-21 cells): ≥ 20 fold; reduction of viral yield in multi-cycle infection (DENV2 S221 [6]): over 95%; fraction unbound (Plasma-protein binding): < 0.001; inhibition of E-mediated fusion (protection of core from trypsin digestion), DENV2 [7]: inhibits E-mediated fusion of DENV2 in a concentration-dependent manner; also recorded: inhibits viral fusion in the liposome-based assay in a concentration-dependent manner
5 | CCN1CCN(Cc2ccc(N/N=C(\C#N)C(=O)c3cc4ccccc4o3)cc2C(F)(F)F)CC1 [JBJ-01-162-05, (E)-2-(benzofuran-2-yl)-N-(4-((4-ethylpiperazin-1-yl)methyl)-3-(trifluoromethyl)phenyl)-2-oxoacetohydrazonoyl cyanide] | 29.9 | – | – | –
6 | N#C/C(=N\Nc1ccc(F)c(C(F)(F)F)c1)C(=O)c1cc2ccccc2o1 [JBJ-03-019-01, (E)-2-(benzofuran-2-yl)-N-(4-fluoro-3-(trifluoromethyl)phenyl)-2-oxoacetohydrazonoyl cyanide] | 7.6 | – | – | –
7 | N#C/C(=N\Nc1cc(F)cc(C(F)(F)F)c1)C(=O)c1cc2ccccc2o1 [JBJ-03-019-02, (E)-2-(benzofuran-2-yl)-N-(3-fluoro-5-(trifluoromethyl)phenyl)-2-oxoacetohydrazonoyl cyanide] | 8.6 | – | – | –
